Converted amounts (≈) assume the structure as drawn.
Key:
NCI-H522 = test: cells; conditions: Homo sapiens, NCI-H522, 48 h; for CC50: read-out: LC50
U251 = test: cells; conditions: Homo sapiens, U-251, 48 h; for GI50: U251, 48 h; for CC50: read-out: LC50
MOLT-4 = test: cells; conditions: Homo sapiens, MOLT-4, 48 h; for CC50: read-out: LC50
60 cancer cell lines = test: NCI-60 one-dose screen (10 μM); assay type: cell-based; conditions: Homo sapiens; one dose of 10 μM, mean over 60 cancer cell lines; read-out: Mean Growth Percent (MGP)
Description: Additionally, the mean of the growth percentages (MGP) of each compound against all the 60 cancer cell lines is also reported, which is used as one of the selection criteria to continue with tests at five concentration doses.

LOX IMVI = test: cells; conditions: Homo sapiens, 48 h; for CC50: read-out: LC50, LOX IMVI, 48 h
BT-549 = test: cells; conditions: Homo sapiens, BT-549, 48 h; for CC50: read-out: LC50
ACHN = test: cells; conditions: Homo sapiens, 48 h; for CC50: read-out: LC50
NCI-H226 = test: cells; conditions: Homo sapiens, NCI-H226, 48 h; for CC50: read-out: LC50
SNB-19 = test: cells; conditions: Homo sapiens, SNB-19, 48 h; for CC50: read-out: LC50
A549/ATCC = test: cells; conditions: Homo sapiens, A549, 48 h; for CC50: read-out: LC50
PC-3 = test: cells; conditions: Homo sapiens, PC-3, 48 h; for CC50: read-out: LC50
[1] = system: M. tuberculosis ATCC 27294; test: Antitubercular broth microdilution MIC; assay type: cell-based; conditions: Mycobacterium tuberculosis; M. tuberculosis ATCC 27294 (H37Rv); read-out: Minimum inhibitory concentration (MIC)
MDA-MB-435 = test: cells; conditions: Homo sapiens, MDA-MB-435, 48 h; for CC50: read-out: LC50
SK-MEL-2 = test: cells; conditions: Homo sapiens, SK-MEL-2, 48 h; for CC50: read-out: LC50
NCI-H23 = test: cells; conditions: Homo sapiens, NCI-H23, 48 h; for CC50: read-out: LC50
RPMI-8226 = test: cells; conditions: Homo sapiens, RPMI-8226, 48 h; for CC50: read-out: LC50
HCT-116 = test: cells; conditions: Homo sapiens, HCT-116, 48 h; for CC50: read-out: LC50
SW-620 = test: cells; conditions: Homo sapiens, SW-620, 48 h; for CC50: read-out: LC50
MDA-MB-231/ATCC = test: cells; conditions: Homo sapiens, MDA-MB-231, 48 h; for CC50: read-out: LC50
HOP-92 = test: cells; conditions: Homo sapiens, HOP-92, 48 h; for CC50: read-out: LC50
T-47D = test: cells; conditions: Homo sapiens, T47D, 48 h; for CC50: read-out: LC50
[2] = system: N. gonorrhoeae ATCC 49226; test: MIC on GC agar plates; assay type: cell-based, Neisseria gonorrhoeae; conditions: Neisseria gonorrhoeae, ATCC49226, read-out: MIC
Outline: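 Agar dilution was used: GC agar with 1% IsoVitaleX containing increasing compound concentrations was inoculated with 1 × 10^4 CFU. The MIC was taken as the lowest concentration inhibiting growth, with growth confirmed by oxidase test, in duplicate across at least two independent experiments.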

[3] = system: Microsporum gypseum (CCC 115); test: Antifungal broth microdilution (CLSI); assay type: cell-based; conditions: Nannizzia gypsea; Mg: Microsporum gypseum
Outline: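 Broth microdilution followed CLSI M27-A3 for yeasts and the filamentous-fungi reference method, in 200 μL final volume with DMSO-matched growth controls. Plates were incubated in the dark and humid at 30 °C for a time suited to each fungus; testing was done in triplicate.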

DU-145 = test: cells; conditions: Homo sapiens, DU-145, 48 h; for CC50: read-out: LC50
IGROV1 = test: cells; conditions: Homo sapiens, IGROV-1, 48 h; for CC50: read-out: LC50
NCI/ADR-RES = test: cells; conditions: Homo sapiens, 48 h; for CC50: read-out: LC50
SR = test: cells; conditions: Homo sapiens, 48 h

CN(C)c1nc(NCCNS(=O)(=O)c2ccc(C(=O)/C=C/c3ccc(Cl)cc3)cc2)nc(Nc2ccc(F)cc2)n1 [24e]
GI50 (NCI-H522): 7.1 µM
CC50 (NCI-H522): 22 µM
GI50 (U251): 5.25 µM
CC50 (U251): 18.6 µM
GI50 (MOLT-4): 3.07 µM
CC50 (MOLT-4): > 100 µM
activity at 10 µM (60 cancer cell lines): -46.6%
GI50 (LOX IMVI): 2.74 µM
CC50 (LOX IMVI): 9.16 µM
GI50 (BT-549): 11.6 µM
CC50 (BT-549): 23.9 µM
GI50 (ACHN): 4.2 µM
CC50 (ACHN): 15.3 µM
GI50 (NCI-H226): 6.14 µM
CC50 (NCI-H226): 24.3 µM
GI50 (SNB-19): 9.18 µM
CC50 (SNB-19): 21.3 µM
GI50 (A549/ATCC): 4.52 µM
CC50 (A549/ATCC): 17.4 µM
GI50 (PC-3): 3.74 µM
CC50 (PC-3): 14.1 µM
MIC [1]: 25 µg/mL (≈ 41.9 µM)
GI50 (MDA-MB-435): 3.8 µM
CC50 (MDA-MB-435): 14 µM
GI50 (SK-MEL-2): 5.47 µM
CC50 (SK-MEL-2): 19.5 µM
GI50 (NCI-H23): 10.7 µM
CC50 (NCI-H23): 23.4 µM
GI50 (RPMI-8226): 2.47 µM
CC50 (RPMI-8226): 7.11 µM
GI50 (HCT-116): 1.66 µM
CC50 (HCT-116): 3.11 µM
GI50 (SW-620): 2.78 µM
CC50 (SW-620): 11 µM
GI50 (MDA-MB-231/ATCC): 4.72 µM
CC50 (MDA-MB-231/ATCC): 17.4 µM
GI50 (HOP-92): 3.83 µM
CC50 (HOP-92): 14.7 µM
GI50 (T-47D): 4.37 µM
CC50 (T-47D): 18 µM
MIC [2]: 500 µg/mL (≈ 839 µM)
MIC [3]: > 250 µg/mL
GI50 (DU-145): 9.7 µM
CC50 (DU-145): 21.8 µM
GI50 (IGROV1): 8.58 µM
CC50 (IGROV1): 21.4 µM
GI50 (NCI/ADR-RES): 5.49 µM
CC50 (NCI/ADR-RES): 18.4 µM

CN(C)c1nc(NCCNS(=O)(=O)c2ccc(C3=Nc4c(N)nc(N)nc4NC(c4ccc(C(F)(F)F)cc4)C3)cc2)nc(Nc2ccc(F)cc2)n1 (centres unmarked) [31g]
GI50 (NCI-H522): 17.8 µM
CC50 (NCI-H522): 44.8 µM
GI50 (U251): 5.52 µM
CC50 (U251): 86 µM
GI50 (MOLT-4): 2.74 µM
CC50 (MOLT-4): 86 µM
activity at 10 µM (60 cancer cell lines): 6.81%
GI50 (LOX IMVI): 3.14 µM
CC50 (LOX IMVI): 12 µM
GI50 (BT-549): 11.8 µM
CC50 (BT-549): 32.6 µM
GI50 (ACHN): > 86 µM
CC50 (ACHN): > 86 µM
GI50 (NCI-H226): 37.3 µM
CC50 (NCI-H226): 86 µM
GI50 (A549/ATCC): 55 µM
CC50 (A549/ATCC): 86 µM
GI50 (PC-3): 4.37 µM
CC50 (PC-3): 86 µM
MIC [1]: 5 µg/mL (≈ 6.65 µM)
GI50 (MDA-MB-435): 9.13 µM
CC50 (MDA-MB-435): 86 µM
GI50 (SK-MEL-2): 10.8 µM
CC50 (SK-MEL-2): 24.7 µM
GI50 (NCI-H23): 27.7 µM
CC50 (NCI-H23): 86 µM
GI50 (RPMI-8226): 4 µM
CC50 (RPMI-8226): 86 µM
GI50 (HCT-116): 5.1 µM
CC50 (HCT-116): 86 µM
GI50 (SW-620): 14.3 µM
CC50 (SW-620): 86 µM
GI50 (HOP-92): 2.99 µM
CC50 (HOP-92): 16.9 µM
GI50 (T-47D): 12 µM
CC50 (T-47D): 86 µM
MIC [3]: > 250 µg/mL
GI50 (DU-145): 38.5 µM
CC50 (DU-145): 86 µM
GI50 (IGROV1): 11.2 µM
CC50 (IGROV1): 86 µM
GI50 (NCI/ADR-RES): > 86 µM
CC50 (NCI/ADR-RES): > 86 µM

CN(C)c1nc(NCCNS(=O)(=O)c2ccc(C3=Nc4c(N)nc(N)nc4NC(c4ccc(C(F)(F)F)cc4)C3)cc2)nc(N2CCOCC2)n1 (centres unmarked) [30g]
GI50 (NCI-H522): 51.7 µM
CC50 (NCI-H522): > 100 µM
GI50 (U251): 24.2 µM
CC50 (U251): > 100 µM
GI50 (MOLT-4): 17.3 µM
CC50 (MOLT-4): > 100 µM
activity at 10 µM (60 cancer cell lines): 38.8%
GI50 (LOX IMVI): 17.1 µM
CC50 (LOX IMVI): 64.1 µM
GI50 (BT-549): 13.8 µM
CC50 (BT-549): 73.1 µM
GI50 (ACHN): 64.4 µM
CC50 (ACHN): > 100 µM
GI50 (NCI-H226): 17.6 µM
CC50 (NCI-H226): > 100 µM
GI50 (SNB-19): 30 µM
CC50 (SNB-19): > 100 µM
GI50 (SR): 18.1 µM
CC50 (SR; read-out: LC50): > 100 µM
GI50 (A549/ATCC): 51.3 µM
CC50 (A549/ATCC): > 100 µM
GI50 (PC-3): 24.6 µM
CC50 (PC-3): > 100 µM
GI50 (MDA-MB-435): 34.2 µM
CC50 (MDA-MB-435): > 100 µM
GI50 (SK-MEL-2): 15.8 µM
CC50 (SK-MEL-2): 57.8 µM
GI50 (NCI-H23): 37.6 µM
CC50 (NCI-H23): > 100 µM
GI50 (RPMI-8226): 11.2 µM
CC50 (RPMI-8226): > 100 µM
GI50 (HCT-116): 41.9 µM
CC50 (HCT-116): > 100 µM
GI50 (SW-620): 46.9 µM
CC50 (SW-620): > 100 µM
GI50 (MDA-MB-231/ATCC): 16.9 µM
CC50 (MDA-MB-231/ATCC): > 100 µM
GI50 (HOP-92): 7.48 µM
CC50 (HOP-92): > 100 µM
GI50 (T-47D): 21.3 µM
CC50 (T-47D): > 100 µM
MIC [3]: > 250 µg/mL
GI50 (DU-145): 72 µM
CC50 (DU-145): > 100 µM
GI50 (IGROV1): 27 µM
CC50 (IGROV1): > 100 µM
